Columns and labels:
Type in all cases: in vivo, maize
ZEAMA Abraxas = test: Tank-mix; post-emergence, crop damage with and without safener; conditions: for HER effect + SAF / HER effect: Final assessment; for HER effect: no safener
Outline: (§1)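 Crops in sandy loam in the greenhouse were sprayed at the 1–3-leaf stage, 2–3 weeks after sowing, with herbicide/safener combinations or the single actives at various dosages in 300 l/ha water. Injury was scored visually 1–3 weeks after treatment as % versus untreated plants (0% none, 100% complete kill).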

ZEAMA Sileno [1] = test: Seed treatment with safener; post-emergence herbicide application; parameters: Reduction [Difference]: scale not given here; conditions: Final assessment; for Reduction [%] / Reduction [Difference]: Cyprosulfamide 0.5 g a.i./kg seed; for Reduction [Difference]: damage without safener - damage with safener; for HER effect + SAF (crop damage with safener): Cyprosulfamide seed treatment 0.5 g a.i./kg seed; for HER effect (crop damage, herbicide without safener): no safener
Outline: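 Maize seeds slurry-coated with WP safener (g a.i./kg seed) or left untreated, sown in sandy loam and grown in greenhouse. WP herbicide sprayed post-emergence at BBCH11-13 in 300 l/ha water with wetting agent and adjuvants (e.g. Mero 1.5 l/ha, ammonium sulphate 2 kg/ha); means of at least 2 replicates.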

ZEAMA Sileno [2] = test: Tank-mix; post-emergence, crop damage with and without safener; conditions: for HER effect + SAF / HER effect: Final assessment; for HER effect: no safener
Outline: as §1

ZEAMA Sileno [3] = test: Treatment 1 day before (safener applied one day before herbicide, post-emergence); parameters: key to Reduction [Difference]: percentage points of visually scored % crop damage vs untreated control; conditions: for Reduction [%] / Reduction [Difference]: cyprosulfamide 100 g a.i./ha 1 day before; for HER effect + SAF: cyprosulfamide 100 g a.i./ha applied 1 day before; for HER effect + SAF / HER effect: Final assessment; for HER effect: no safener
From the text: Seeds of crops (spring wheat, TRZAS; spring barley, HORVS; maize, ZEAMA) were placed in sandy loam soil in pots of a diameter of 7-8 cm, covered with soil, and cultivated in a greenhouse under good growth conditions until plants were at the 1-3 leaf stage (BBCH 11-13). For split safener and herbicide treatment, first the safener was applied followed by the herbicide treatment on the following day. The safener and herbicides were formulated as WP and sprayed onto the green parts of the plants as an aqueous suspension at an equivalent water application rate of 300 1/ha, with addition of wetting agent and adjuvants (e.g. Mero, 1.5 1/ha; ammonium sulphate, 2 kg/ha). An equivalent set of plants was treated with the herbicides but without the prior safener treatment.
After application, the test plants were kept in the greenhouse under good growth conditions. 10 and 21 days after treatment (DAT) with the herbicide, % crop damage observed on the treated plants was scored visually in comparison to control plants that had not received any safener or herbicide treatment.

[4] = HER 8 g a.i./ha, cyprosulfamide 50 g a.i./ha
[5] = HER 32 g a.i./ha, cyprosulfamide 100 g a.i./ha
[6] = HER dose 8 g a.i./ha + cyprosulfamide 50 g a.i./ha tank-mix
[7] = HER dose 32 g a.i./ha + cyprosulfamide 100 g a.i./ha tank-mix
[8] = HER 2 g a.i./ha, cyprosulfamide 50 g a.i./ha
[9] = HER dose 2 g a.i./ha + cyprosulfamide 50 g a.i./ha tank-mix

Row | SMILES | Reduction [%] (ZEAMA Abraxas; [4]) | Reduction [Difference] (ZEAMA Abraxas; [4]) | Reduction [%] (ZEAMA Abraxas; [5]) | Reduction [Difference] (ZEAMA Abraxas; [5]) | HER effect + SAF (ZEAMA Abraxas; [6]) [%] | HER effect (ZEAMA Abraxas; HER dose 8 g a.i./ha) [%] | HER effect + SAF (ZEAMA Abraxas; [7]) [%] | HER effect (ZEAMA Abraxas; HER dose 32 g a.i./ha) [%] | Reduction [%] (ZEAMA Sileno [1]; HER dose 8 g a.i./ha) | Reduction [Difference] (ZEAMA Sileno [1]; HER dose 8 g a.i./ha) | HER effect + SAF (crop damage with safener) (ZEAMA Sileno [1]; HER dose 8 g a.i./ha) [%] | HER effect (crop damage, herbicide without safener) (ZEAMA Sileno [1]; HER dose 8 g a.i./ha) [%] | Reduction [%] (ZEAMA Sileno [1]; HER dose 32 g a.i./ha) | Reduction [Difference] (ZEAMA Sileno [1]; HER dose 32 g a.i./ha) | HER effect + SAF (crop damage with safener) (ZEAMA Sileno [1]; HER dose 32 g a.i./ha) [%] | HER effect (crop damage, herbicide without safener) (ZEAMA Sileno [1]; HER dose 32 g a.i./ha) [%] | Reduction [%] (ZEAMA Sileno [3]; HER 32 g a.i./ha) | Reduction [Difference] (ZEAMA Sileno [3]; HER 32 g a.i./ha) | HER effect + SAF (ZEAMA Sileno [3]; HER dose 32 g a.i./ha) [%] | HER effect (ZEAMA Sileno [3]; HER dose 32 g a.i./ha) [%] | other results
1 | CC1(C(=O)NC2COC(C(=O)OCc3cccc(F)c3)C2)CC(c2cc(F)cc(F)c2)=NO1 (mixture of isomers) [Example 1.76] | 74 | 67 | 26 | 25 | 23 | 90 | 70 | 95 | 100 | 22 | 0 | 22 | 74 | 20 | 7 | 27 | – | – | – | – | –
2 | CCOC(=O)C1C=CC(NC(=O)C2(CF)CC(c3cc(F)cc(F)c3)=NO2)C1 (centres unmarked) [Example 1.17] | – | – | – | – | – | – | – | – | 95 | 90 | 5 | 95 | 82 | 70 | 15 | 85 | 59 | 50 | 35 | 85 | Reduction [%] (ZEAMA Sileno [2]; [8]): 67%; Reduction [Difference] (ZEAMA Sileno [2]; HER 2 g a.i./ha, cyprosulfamide 50 g a.i./ha, damage without safener - damage with safener): 30; Reduction [%] (ZEAMA Sileno [2]; [4]): 53%; Reduction [Difference] (ZEAMA Sileno [2]; [4]): 50; HER effect + SAF (ZEAMA Sileno [2]; [9]): 15%; HER effect (ZEAMA Sileno [2]; HER dose 2 g a.i./ha, 0% = no injury, 100% = complete kill): 45%; HER effect + SAF (ZEAMA Sileno [2]; [6]): 45%; HER effect (ZEAMA Sileno [2]; HER dose 8 g a.i./ha): 95%; Reduction [%] (ZEAMA Sileno [3]; HER 2 g a.i./ha): 56%; Reduction [Difference] (ZEAMA Sileno [3]; HER 2 g a.i./ha): 25; Reduction [%] (ZEAMA Sileno [3]; HER 8 g a.i./ha): 63%; Reduction [Difference] (ZEAMA Sileno [3]; HER 8 g a.i./ha): 60; HER effect + SAF (ZEAMA Sileno [3]; HER dose 2 g a.i./ha): 20%; HER effect (ZEAMA Sileno [3]; HER dose 2 g a.i./ha): 45%; HER effect + SAF (ZEAMA Sileno [3]; HER dose 8 g a.i./ha): 35%; HER effect (ZEAMA Sileno [3]; HER dose 8 g a.i./ha): 95%; Reduction [%] (ZEAMA Sileno [1]; HER dose 2 g a.i./ha): 100%; Reduction [Difference] (ZEAMA Sileno [1]; HER dose 2 g a.i./ha): 45; HER effect + SAF (crop damage with safener) (ZEAMA Sileno [1]; HER dose 2 g a.i./ha): 0%; HER effect (crop damage, herbicide without safener) (ZEAMA Sileno [1]; HER dose 2 g a.i./ha): 45%
3 | CC1(C(=O)NC2C=CC(C(=O)OCCSCc3ccccc3)C2)CC(c2cc(F)cc(F)c2)=NO1 (centres unmarked) [Example 1.27] | – | – | – | – | – | – | – | – | 83 | 25 | 5 | 30 | 75 | 45 | 15 | 60 | 67 | 40 | 20 | 60 | Reduction [%] (ZEAMA Sileno [2]; [5]): 67%; Reduction [Difference] (ZEAMA Sileno [2]; [5]): 40; HER effect + SAF (ZEAMA Sileno [2]; [7]): 20%; HER effect (ZEAMA Sileno [2]; HER dose 32 g a.i./ha): 60%
4 | CN(C)C(=O)SCCOC(=O)C1C=CC(NC(=O)C2(C)CC(c3cc(F)cc(F)c3)=NO2)C1 (centres unmarked) [Example 1.29] | – | – | – | – | – | – | – | – | 100 | 60 | 0 | 60 | 93 | 70 | 5 | 75 | 73 | 55 | 20 | 75 | Reduction [%] (ZEAMA Sileno [2]; [4]): 67%; Reduction [Difference] (ZEAMA Sileno [2]; [4]): 40; Reduction [%] (ZEAMA Sileno [2]; [5]): 60%; Reduction [Difference] (ZEAMA Sileno [2]; [5]): 45; HER effect + SAF (ZEAMA Sileno [2]; [6]): 20%; HER effect (ZEAMA Sileno [2]; HER dose 8 g a.i./ha): 60%; HER effect + SAF (ZEAMA Sileno [2]; [7]): 30%; HER effect (ZEAMA Sileno [2]; HER dose 32 g a.i./ha): 75%; Reduction [%] (ZEAMA Sileno [3]; HER 8 g a.i./ha): 67%; Reduction [Difference] (ZEAMA Sileno [3]; HER 8 g a.i./ha): 40; HER effect + SAF (ZEAMA Sileno [3]; HER dose 8 g a.i./ha): 20%; HER effect (ZEAMA Sileno [3]; HER dose 8 g a.i./ha): 60%
5 | C=CC1(C(=O)NC2C=CC(C(=O)O)C2)CC(c2cc(F)cc(F)c2)=NO1 (centres unmarked) [Example 1.58] | 87 | 54 | 68 | 65 | 8 | 62 | 30 | 95 | – | – | – | – | 64 | 45 | 25 | 70 | – | – | – | – | Reduction [%] (ZEAMA Sileno [1]; HER dose 2 g a.i./ha): 100%; Reduction [Difference] (ZEAMA Sileno [1]; HER dose 2 g a.i./ha): 20; HER effect + SAF (crop damage with safener) (ZEAMA Sileno [1]; HER dose 2 g a.i./ha): 0%; HER effect (crop damage, herbicide without safener) (ZEAMA Sileno [1]; HER dose 2 g a.i./ha): 20%
6 | C=CC1(C(=O)NC2C=C(C(=O)OCCOC)OC2)CC(c2cc(C)cc(F)c2)=NO1 (centres unmarked) [Example 1.89] | 100 | 30 | 67 | 30 | 0 | 30 | 15 | 45 | – | – | – | – | 88 | 22 | 3 | 25 | – | – | – | – | –
7 | C=CC1(C(=O)NC2C=C(C(=O)OC)OC2)CC(c2cc(C)cc(C)c2)=NO1 (centres unmarked) [Example 1.90] | – | – | – | – | – | – | – | – | 73 | 61 | 22 | 83 | 68 | 64 | 30 | 94 | – | – | – | – | Reduction [%] (ZEAMA Abraxas; [8]): 88%; Reduction [Difference] (ZEAMA Abraxas; [8]): 22; HER effect + SAF (ZEAMA Abraxas; [9]): 3%; HER effect (ZEAMA Abraxas; HER dose 2 g a.i./ha): 25%
